From ChEMBL document CHEMBL1121391, “Antiamebic amidines and sulfonamides of 5- and 6-amino-2,3-bis(4-alkyl-1-piperazinyl)quinoxalines” (1980)
The source made the active and inactive calls. The calls are words filed in the database; no cut-off is given here.

Legend:
Entamoeba histolytica [1] = experiment: Lowest active dose which cured hamsters with Entamoeba histolytica hepatic infection was measured; format: functional
Entamoeba histolytica [2] = experiment: (§1) Lowest active dose which cured rats with Entamoeba histolytica cecal infection was measured; format: functional
Entamoeba histolytica [3] = experiment: as §1; format: functional, organism-based
Cricetinae gen. sp. = experiment: Lowest active dose which cured the hamsters with Entamoeba histolytica hepatic infection was measured; IA means inactive; format: functional, organism-based; conditions: Cricetulus griseus

| SMILES | Dose (Entamoeba histolytica [2]) | Dose (Entamoeba histolytica [3]) | other results |
| --- | --- | --- | --- |
| CN(C)/C=N/c1cccc2nc(N3CCN(C)CC3)c(N3CCN(C)CC3)nc12 | 10 mg/kg/day |  | Dose (Entamoeba histolytica [1]): 50 mg/kg/day |
| CCCN1CCN(c2nc3ccc(/N=C/N(C)C)cc3nc2N2CCN(CCC)CC2)CC1 | 50 mg/kg/day |  | Dose (Entamoeba histolytica [1]): 100 mg/kg/day |
| CCCN1CCN(c2nc3ccc(NS(=O)(=O)c4ccc(C)cc4)cc3nc2N2CCN(CCC)CC2)CC1 |  | inactive |  |
| C/C(=N\c1ccc2nc(N3CCN(C)CC3)c(N3CCN(C)CC3)nc2c1)N(C)C |  | inactive |  |
| CN(C)CCCN1CCN(/C=N/c2ccc3nc(N4CCN(C)CC4)c(N4CCN(C)CC4)nc3c2)CC1 |  | inactive |  |
| CC/C(=N\c1ccc2nc(N3CCN(C)CC3)c(N3CCN(C)CC3)nc2c1)N(CC)CC |  | inactive |  |
| CN1CCN(c2nc3ccc(N)cc3nc2N2CCN(C)CC2)CC1 | 50 mg/kg/day |  | Dose (Cricetinae gen. sp.): inactive |
| Cc1ccc(S(=O)(=O)Nc2ccc3nc(N4CCN(C)CC4)c(N4CCN(C)CC4)nc3c2)cc1 | 50 mg/kg/day |  | Dose (Entamoeba histolytica [1]): 100 mg/kg/day |
| CCCN1CCN(c2nc3cccc(N)c3nc2N2CCN(CCC)CC2)CC1 |  | inactive |  |
| CCN(/C=N/c1ccc2nc(N3CCN(C)CC3)c(N3CCN(C)CC3)nc2c1)CC |  | inactive |  |
| CN1CCN(c2nc3ccc(NS(=O)(=O)c4ccc(Cl)cc4)cc3nc2N2CCN(C)CC2)CC1 |  | inactive |  |
| CN(C)/C=N/c1cc(Cl)cc2nc(N3CCN(C)CC3)c(N3CCN(C)CC3)nc12 (stereo in doubt; 7) |  | inactive |  |
| CC/C(=N\c1cc(Cl)cc2nc(N3CCN(C)CC3)c(N3CCN(C)CC3)nc12)N(C)C |  | inactive |  |
| Cc1ccc(S(=O)(=O)Nc2cccc3nc(N4CCN(C)CC4)c(N4CCN(C)CC4)nc23)cc1 |  | inactive |  |
| CN(C)/C=N/c1ccc2nc(N3CCN(C)CC3)c(N3CCN(C)CC3)nc2c1 | 20 mg/kg/day |  | Dose (Entamoeba histolytica [1]): 50 mg/kg/day |
| O=[N+]([O-])c1cncn1CCN1CCOCC1 [NIMORAZOLE] | 20 mg/kg/day |  | Dose (Entamoeba histolytica [1]): 100 mg/kg/day |
| C/C(=N\c1cccc2nc(N3CCN(C)CC3)c(N3CCN(C)CC3)nc12)N(C)C |  | inactive |  |
| CCCN1CCN(c2nc3ccc(N)cc3nc2N2CCN(CCC)CC2)CC1 |  | inactive |  |
| CCN(CC)/C(C)=N/c1cc(Cl)cc2nc(N3CCN(C)CC3)c(N3CCN(C)CC3)nc12 |  | inactive |  |
| CC/C(=N\c1cccc2nc(N3CCN(C)CC3)c(N3CCN(C)CC3)nc12)N(C)C |  | inactive |  |
| CN1CCN(c2nc3cccc(N)c3nc2N2CCN(C)CC2)CC1 | 50 mg/kg/day |  | Dose (Cricetinae gen. sp.): inactive |
| Cc1ncc([N+](=O)[O-])n1CCO [METRONIDAZOLE] | 10 mg/kg/day |  | Dose (Entamoeba histolytica [1]): 10 mg/kg/day |
| CN(C)CCCc1ccc(/C=N/c2ccc3nc(N4CCN(C)CC4)c(N4CCN(C)CC4)nc3c2)cc1 | 50 mg/kg/day |  |  |
| CN1CCN(c2nc3ccc(/N=C/N4CCCCC4)cc3nc2N2CCN(C)CC2)CC1 |  | inactive |  |
| CN1CCN(c2nc3cc(Cl)cc(NS(=O)(=O)c4ccc(Cl)cc4)c3nc2N2CCN(C)CC2)CC1 |  | inactive |  |
| CN1CCN(c2nc3cc(Cl)cc(N)c3nc2N2CCN(C)CC2)CC1 |  | inactive |  |
| CN1CCN(c2nc3ccc(NS(=O)(=O)c4cccc(C(F)(F)F)c4)cc3nc2N2CCN(C)CC2)CC1 |  | inactive |  |
| CN(C)/C=N/c1cc(Cl)cc2nc(N3CCN(C)CC3)c(N3CCN(C)CC3)nc12 (stereo in doubt; 21) |  | inactive |  |
| CN1CCN(/C=N/c2ccc3nc(N4CCN(C)CC4)c(N4CCN(C)CC4)nc3c2)CC1 |  | inactive |  |
| CCCN1CCN(c2nc3ccc(/N=C(\C)N(C)C)cc3nc2N2CCN(CCC)CC2)CC1 |  | inactive |  |
